Measurements taken from patent US20130123481A1, “MODIFIED NUCLEOSIDES, NUCLEOTIDES, AND NUCLEIC ACIDS, AND USES THEREOF” (MODERNA THERAPEUTICS, priority 2011, published 2013).

Each molecule was assayed on human embryonic kidney 293 (HEK293) cells (assay: Toxicity of Nucleoside Triphosphates (NTPs), CYTO TOX-GLO assay). Details: human, 4 h, 2.1 nM.
Type: cell-based
Experimental: The cytotoxicity of natural and modified nucleoside triphosphates (NTPs) alone or in combination with other bases, was analyzed in human embryonic kidney 293 (HEK293) cells in the absence of transfection reagent. […] 10 ul of the NTPs outlined in Table 12 were combined with 10 ul of lipid dilution and incubated for 30 minutes to form a complex before 80 ul of the HEK293 cell suspension was added to the NTP complex. Natural and modified NTPs were transfected at a concentration of 2.1 nM, 21 nM, 210 nM, 2.1 um, 21 uM, 210 um or 2.1 mM. NTPs in combination were transfected at a total concentration of NTPs of 8.4 nM, 84 nM, 840 nM, 8.4 uM, 84 uM, 840 uM and 8.4 mM.
`Nc1ncnc2nc[nH]c12` [Adenine] was tested, and the “percent of viable cells” value was 93.48%. `O=c1cc[nH]c(=O)[nH]1` [Uracil] was tested, and the “percent of viable cells” value was 93.15%. `Cc1c[nH]c(=O)nc1N` [5-methyl cytosine] was tested, and the “percent of viable cells” value was 92.23%.

Same assay, conditions: human, 4 h, 21 nM
For `Nc1ncnc2nc[nH]c12` [Adenine], the “percent of viable cells” value was 93.21%. `O=c1cc[nH]c(=O)[nH]1` [Uracil] was tested, and the “percent of viable cells” value was 92.90%. For `Cc1c[nH]c(=O)nc1N` [5-methyl cytosine], the “percent of viable cells” value was 91.40%.

Same assay, conditions: human, 4 h, 210 nM
In the case of `Nc1ncnc2nc[nH]c12` [Adenine], the “percent of viable cells” value is reported as 90.36%. In the case of `O=c1cc[nH]c(=O)[nH]1` [Uracil], the “percent of viable cells” value is reported as 91.05%. With `Cc1c[nH]c(=O)nc1N` [5-methyl cytosine] the “percent of viable cells” value was 92.31%.

Same assay, conditions: human, 4 h, 2.1 uM
In the case of `Nc1ncnc2nc[nH]c12` [Adenine], the “percent of viable cells” value is reported as 90.23%. `O=c1cc[nH]c(=O)[nH]1` [Uracil] was tested, and the “percent of viable cells” value was 90.90%. With `Cc1c[nH]c(=O)nc1N` [5-methyl cytosine] the “percent of viable cells” value was 91.31%.

Same assay, conditions: human, 4 h, 21 uM
With `Nc1ncnc2nc[nH]c12` [Adenine] the “percent of viable cells” value was 91.20%. In the case of `O=c1cc[nH]c(=O)[nH]1` [Uracil], the “percent of viable cells” value is reported as 91.95%. With `Cc1c[nH]c(=O)nc1N` [5-methyl cytosine] the “percent of viable cells” value was 91.16%.

Same assay, conditions: human, 4 h, 210 uM
`Nc1ncnc2nc[nH]c12` [Adenine] was tested, and the “percent of viable cells” value was 85.97%. With `O=c1cc[nH]c(=O)[nH]1` [Uracil] the “percent of viable cells” value was 89.60%. With `Cc1c[nH]c(=O)nc1N` [5-methyl cytosine] the “percent of viable cells” value was 91.54%.

Same assay, conditions: human, 4 h, 2.1 mM
`Nc1ncnc2nc[nH]c12` [Adenine] was tested, and the “percent of viable cells” value was 90.03%. In the case of `O=c1cc[nH]c(=O)[nH]1` [Uracil], the “percent of viable cells” value is reported as 90.97%. `Cc1c[nH]c(=O)nc1N` [5-methyl cytosine] was tested, and the “percent of viable cells” value was 92.01%.

Same assay, conditions: human, 24 h, 2.1 nM
For `Nc1ncnc2nc[nH]c12` [Adenine], the “percent of viable cells” value was 86.44%. With `O=c1cc[nH]c(=O)[nH]1` [Uracil] the “percent of viable cells” value was 87.63%. In the case of `Cc1c[nH]c(=O)nc1N` [5-methyl cytosine], the “percent of viable cells” value is reported as 86.35%.

Same assay, conditions: human, 24 h, 21 nM
With `Nc1ncnc2nc[nH]c12` [Adenine] the “percent of viable cells” value was 87.19%. For `O=c1cc[nH]c(=O)[nH]1` [Uracil], the “percent of viable cells” value was 87.23%. In the case of `Cc1c[nH]c(=O)nc1N` [5-methyl cytosine], the “percent of viable cells” value is reported as 86.37%.

Same assay, conditions: human, 24 h, 210 nM
`Nc1ncnc2nc[nH]c12` [Adenine] was tested, and the “percent of viable cells” value was 86.94%. For `O=c1cc[nH]c(=O)[nH]1` [Uracil], the “percent of viable cells” value was 86.52%. In the case of `Cc1c[nH]c(=O)nc1N` [5-methyl cytosine], the “percent of viable cells” value is reported as 84.71%.

Same assay, conditions: human, 24 h, 2.1 uM
In the case of `Nc1ncnc2nc[nH]c12` [Adenine], the “percent of viable cells” value is reported as 86.81%. With `O=c1cc[nH]c(=O)[nH]1` [Uracil] the “percent of viable cells” value was 86.75%. For `Cc1c[nH]c(=O)nc1N` [5-methyl cytosine], the “percent of viable cells” value was 85.14%.

Same assay, conditions: human, 24 h, 21 uM
In the case of `Nc1ncnc2nc[nH]c12` [Adenine], the “percent of viable cells” value is reported as 86.86%. In the case of `O=c1cc[nH]c(=O)[nH]1` [Uracil], the “percent of viable cells” value is reported as 85.89%. For `Cc1c[nH]c(=O)nc1N` [5-methyl cytosine], the “percent of viable cells” value was 84.72%.

Same assay, conditions: human, 24 h, 210 uM
For `Nc1ncnc2nc[nH]c12` [Adenine], the “percent of viable cells” value was 87.31%. With `O=c1cc[nH]c(=O)[nH]1` [Uracil] the “percent of viable cells” value was 86.48%. With `Cc1c[nH]c(=O)nc1N` [5-methyl cytosine] the “percent of viable cells” value was 85.76%.

Same assay, conditions: human, 24 h, 2.1 mM
For `Nc1ncnc2nc[nH]c12` [Adenine], the “percent of viable cells” value was 88.42%. `O=c1cc[nH]c(=O)[nH]1` [Uracil] was tested, and the “percent of viable cells” value was 87.68%. `Cc1c[nH]c(=O)nc1N` [5-methyl cytosine] was tested, and the “percent of viable cells” value was 87.97%.

Same assay, conditions: human, 48 h, 2.1 nM
`Nc1ncnc2nc[nH]c12` [Adenine] was tested, and the “percent of viable cells” value was 92.12%. For `O=c1cc[nH]c(=O)[nH]1` [Uracil], the “percent of viable cells” value was 91.28%. For `Cc1c[nH]c(=O)nc1N` [5-methyl cytosine], the “percent of viable cells” value was 88.18%.

Same assay, conditions: human, 48 h, 21 nM
`Nc1ncnc2nc[nH]c12` [Adenine] was tested, and the “percent of viable cells” value was 91.13%. With `O=c1cc[nH]c(=O)[nH]1` [Uracil] the “percent of viable cells” value was 88.89%. With `Cc1c[nH]c(=O)nc1N` [5-methyl cytosine] the “percent of viable cells” value was 87.10%.

Same assay, conditions: human, 48 h, 210 nM
`Nc1ncnc2nc[nH]c12` [Adenine] was tested, and the “percent of viable cells” value was 89.17%. For `O=c1cc[nH]c(=O)[nH]1` [Uracil], the “percent of viable cells” value was 88.33%. With `Cc1c[nH]c(=O)nc1N` [5-methyl cytosine] the “percent of viable cells” value was 86.44%.

Same assay, conditions: human, 48 h, 2.1 uM
With `Nc1ncnc2nc[nH]c12` [Adenine] the “percent of viable cells” value was 89.80%. With `O=c1cc[nH]c(=O)[nH]1` [Uracil] the “percent of viable cells” value was 89.44%. In the case of `Cc1c[nH]c(=O)nc1N` [5-methyl cytosine], the “percent of viable cells” value is reported as 86.18%.

Same assay, conditions: human, 48 h, 21 uM
For `Nc1ncnc2nc[nH]c12` [Adenine], the “percent of viable cells” value was 89.94%. In the case of `O=c1cc[nH]c(=O)[nH]1` [Uracil], the “percent of viable cells” value is reported as 89.11%. `Cc1c[nH]c(=O)nc1N` [5-methyl cytosine] was tested, and the “percent of viable cells” value was 85.74%.

Same assay, conditions: human, 48 h, 210 uM
In the case of `Nc1ncnc2nc[nH]c12` [Adenine], the “percent of viable cells” value is reported as 90.55%. `O=c1cc[nH]c(=O)[nH]1` [Uracil] was tested, and the “percent of viable cells” value was 88.98%. With `Cc1c[nH]c(=O)nc1N` [5-methyl cytosine] the “percent of viable cells” value was 85.94%.

Same assay, conditions: human, 48 h, 2.1 mM
For `Nc1ncnc2nc[nH]c12` [Adenine], the “percent of viable cells” value was 93.71%. For `O=c1cc[nH]c(=O)[nH]1` [Uracil], the “percent of viable cells” value was 94.39%. `Cc1c[nH]c(=O)nc1N` [5-methyl cytosine] was tested, and the “percent of viable cells” value was 87.29%.

Same assay, conditions: human, 72 h, 2.1 nM
For `Nc1ncnc2nc[nH]c12` [Adenine], the “percent of viable cells” value was 95.74%. `O=c1cc[nH]c(=O)[nH]1` [Uracil] was tested, and the “percent of viable cells” value was 95.51%. In the case of `Cc1c[nH]c(=O)nc1N` [5-methyl cytosine], the “percent of viable cells” value is reported as 91.93%.

Same assay, conditions: human, 72 h, 21 nM
In the case of `Nc1ncnc2nc[nH]c12` [Adenine], the “percent of viable cells” value is reported as 93.88%. `O=c1cc[nH]c(=O)[nH]1` [Uracil] was tested, and the “percent of viable cells” value was 94.53%. With `Cc1c[nH]c(=O)nc1N` [5-methyl cytosine] the “percent of viable cells” value was 92.10%.

Same assay, conditions: human, 72 h, 210 nM
`Nc1ncnc2nc[nH]c12` [Adenine] was tested, and the “percent of viable cells” value was 92.22%. `O=c1cc[nH]c(=O)[nH]1` [Uracil] was tested, and the “percent of viable cells” value was 94.50%. With `Cc1c[nH]c(=O)nc1N` [5-methyl cytosine] the “percent of viable cells” value was 89.97%.

Same assay, conditions: human, 72 h, 2.1 uM
For `Nc1ncnc2nc[nH]c12` [Adenine], the “percent of viable cells” value was 94.58%. With `O=c1cc[nH]c(=O)[nH]1` [Uracil] the “percent of viable cells” value was 94.60%. For `Cc1c[nH]c(=O)nc1N` [5-methyl cytosine], the “percent of viable cells” value was 90.92%.

Same assay, conditions: human, 72 h, 21 uM
With `Nc1ncnc2nc[nH]c12` [Adenine] the “percent of viable cells” value was 93.83%. In the case of `O=c1cc[nH]c(=O)[nH]1` [Uracil], the “percent of viable cells” value is reported as 93.63%. For `Cc1c[nH]c(=O)nc1N` [5-methyl cytosine], the “percent of viable cells” value was 92.26%.

Same assay, conditions: human, 72 h, 210 uM
For `Nc1ncnc2nc[nH]c12` [Adenine], the “percent of viable cells” value was 94.81%. `O=c1cc[nH]c(=O)[nH]1` [Uracil] was tested, and the “percent of viable cells” value was 93.45%. In the case of `Cc1c[nH]c(=O)nc1N` [5-methyl cytosine], the “percent of viable cells” value is reported as 88.10%.

Same assay, conditions: human, 72 h, 2.1 mM
For `Nc1ncnc2nc[nH]c12` [Adenine], the “percent of viable cells” value was 97.49%. `O=c1cc[nH]c(=O)[nH]1` [Uracil] was tested, and the “percent of viable cells” value was 96.82%. In the case of `Cc1c[nH]c(=O)nc1N` [5-methyl cytosine], the “percent of viable cells” value is reported as 96.08%.
